The subject of assay [1] is collagen-induced platelet aggregation. Briefly: Effect on collagen-induced platelet aggregation (in vitro). The class given is cell-based, human. The note with it: for IC50: 2 min, human platelet-rich plasma, 4×10^5 cells/mm^3, 2 minutes at 37° C., Born's method, read-out: IC50, collagen-induced platelet aggregation-inhibiting activity. Here is the method:
Nine volumes of blood collected from a healthy human were mixed with one volume of 3.13% (w/v) trisodium citrate solution, and the mixture was centrifuged to give platelet-rich plasma ("PRP") as the supernatant. The bottom layer was further centrifuged to give platelet-poor plasma ("PPP") as the supernatant. PRP was diluted with PPP so that the platelet count was about 4×10^5 cells/mm^3. 25 μl of a test compound solution containing an equimolar amount of sodium bicarbonate was added to 200 μl of said diluted PRP. After the mixture was stirred for 2 minutes at 37° C., a collagen solution [25-29 μg/ml solution: Biochim. Biophys. Acta, 186, 254 (1969)] was added thereto to induce platelet aggregation. The degree of platelet aggregation was examined by Born's method (Nature, 194, 927 (1962)), and the platelet aggregation-inhibiting activity of the test compound was estimated. The platlet aggregation-inhibiting activity of the test compound was expressed as IC50, i.e., the concentration of the test compound required to induce 50% inhibition of collagen-induced platelet aggregation.

Another assay deals with bleeding time. Briefly: Effect on bleeding time (in vivo). Set-up: species or system ddy-male mice. The note with it: Mus musculus; oral, 3 hours before tail cut; dose required to induce at least 50% prolongation of bleeding time vs control; read-out: minimum effective dose, prolonging effect on the bleeding time. On the procedure: A test compound (suspended or dissolved in an aqueous 0.25% carboxymethylcellulose solution) was orally administered to ddy-male mice (5 weeks old, 10 mice per group) fasted overnight. Three hours later, the tip (ca. 2 mm) of the tail was cut off under ether anesthesia, and said tail was immersed in physiological saline (37° C.) immediately. The bleeding time (seconds) of the medicated group of mice was compared with that of a control group of mice to which an aqueous 0.25% CMC solution was administered instead of the test compound solution. The prolonging effect of each test compound on the bleeding time was estimated in terms of a minimum effective dose, i.e., the dose required to induce at least 50% prolongation of the bleeding time as compared with that of the control group.

Assay [2] concerns arachidonic acid-induced pulmonary embolism. Briefly: Effect on arachidonic acid-induced pulmonary embolism (in vivo). Also on record: species or system ddy-male mice. The note with it: Mus musculus; oral, 3 hours before arachidonic acid; dose required to shorten the recovery time by at least 15% vs control; read-out: Minimum Effective Dose, inhibiting effect on arachidonic acid-induced pulmonary embolism. On the procedure:
A test compound (suspended or dissolved in an aqueous sodium bicarbonate and 0.25% carboxymethylcellulose solution) was orally administered to ddy-male mice (5 weeks old, 10 mice per group) fasted overnight. Three hours later, arachidonic acid (125 mg/2.5 ml of 1% NaHCO3 solution+7.5 ml of 0.9% aqueous sodium chloride/kg) was injected to the tail vein of mice to induce pulmonary embolism, and the recovery time(minutes) of locomotive activity of the mice (i.e., the duration from the injection of arachidonic acid to the time the mice recovered from respiratory distress and began to walk) was compared with that of a control group of mice to which an aqueous 0.25% CMC solution was administered instead of the test compound solution. The inhibiting effect of each test compound on arachidonic acid-induced pulmonary embolism was estimated in terms of a minimum effective dose, i.e., the dose required to shorten the recovery time by at least 15% as compared with the control group.

What is called IC50 is the concentration that inhibits the measured activity by half.

Values after ≈ are worked out from the molar mass of the structure shown.

In the case of `CC(Cc1ccc(OCC(=O)O)cc1)NS(=O)(=O)c1ccc(Cl)cc1` (racemic) [Compound No. 1, (±)4-[2(4-chlorophenyl)sulfonylaminopropyl]phenoxyacetic acid], the 50% inhibitory concentration (IC50) in assay [1] was determined as 0.7 µg/mL (≈ 1.82 µM). The results for the minimal effective dose (with bleeding time; in assay [2]) were 3 mg/kg and 1 mg/kg, respectively.
With `CC(CNS(=O)(=O)c1ccc(Cl)cc1)c1ccc(OCC(=O)O)cc1` (racemic) [Compound No. 2, (±)4-[2(4-chlorophenyl)sulfonylamino-1-methylethyl]phenoxyacetic acid], the IC50 in assay [1] is 0.5 µg/mL (≈ 1.3 µM). Also, in assay [1] (in vitro, times as strong as known compound of JP 35910/1982), the “platelet aggregation-inhibiting activity relative to 4-(2-benzenesulfonylaminoethyl)phenoxyacetic acid” value is “about 4 times”. Moreover, the minimal effective dose in the assay on bleeding time is 10 mg/kg; in assay [2] it was 0.3 mg/kg.
`CC(CNS(=O)(=O)c1ccc(Br)cc1)c1ccc(OCC(=O)O)cc1` (racemic) [Compound No. 3, (±)4-[2(4-bromophenyl)sulfonylamino-1-methylethyl]phenoxyacetic acid]: the IC50 in assay [1] was determined as 0.5 µg/mL (≈ 1.17 µM). Further, the minimal effective dose in the assay on bleeding time stood at 10 mg/kg; in assay [2] it was 0.1 mg/kg.
With `CC(CNS(=O)(=O)c1ccccc1)c1ccc(OCC(=O)O)c(F)c1` (racemic) [Compound No. 4, (±)4-(2-benzenesulfonylamino-1-methylethyl)-2-fluorophenoxyacetic acid], the minimal effective dose in assay [2] worked out at 0.1 mg/kg.
Still for that read-out and setting: as for `CC(CNS(=O)(=O)c1ccc(Cl)cc1)c1ccc(OCC(=O)O)c(F)c1` (racemic) [Compound No. 5, (±)4-(2-(4-chlorophenyl)sulfonylamino-1-methylethyl)-2-fluorophenoxyactic acid], the figure is 0.03 mg/kg.
Turning to `O=C(O)COc1ccc(CCNS(=O)(=O)c2ccccc2)cc1` [Known Compound, 4-(2-benzenesulfonylaminoethyl)phenoxyacetic acid, reference compound], the IC50 in assay [1] came to 2 µg/mL (≈ 5.96 µM). Moreover, the minimal effective dose (in the assay with bleeding time; in assay [2]) was 30 mg/kg each time.
